Measured values from patent publication US6855730B2, “3-methylidenyl-2-indolinone modulators of protein kinase” (Sugen, Inc., priority 1998, dated 2005).

How the values were obtained:
flkGST = target: T1, flkGST (Homo sapiens, UniProt P35968); assay: bio flkGST assay; format: biochemical
T1 construct: GST

human flk-1 = target: T2, human flk-1 (Homo sapiens, UniProt P35968); assay: Biochemical FLK-1 assay (flk-1 autophosphorylation ELISA); conditions: read-out: bio FLK1 IC50 (μM) % if inhibition at 100
T2 construct: host or cells: Flk-1/NIH cells (NIH fibroblasts)
Summary of the method: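 Flk-1 from lysates of NIH fibroblasts over-expressing human flk-1 (50 μg/well) was captured on anti-flk-1 antibody-coated plates, then autophosphorylated with test compounds and ATP (0.3 mM working solution) for 60 min at room temperature before EDTA stop. Phosphotyrosine was detected with biotinylated 4G10, avidin-biotin peroxidase and TMB at 450 nm.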

T1 sequence (P35968 786-1356 limits assumed): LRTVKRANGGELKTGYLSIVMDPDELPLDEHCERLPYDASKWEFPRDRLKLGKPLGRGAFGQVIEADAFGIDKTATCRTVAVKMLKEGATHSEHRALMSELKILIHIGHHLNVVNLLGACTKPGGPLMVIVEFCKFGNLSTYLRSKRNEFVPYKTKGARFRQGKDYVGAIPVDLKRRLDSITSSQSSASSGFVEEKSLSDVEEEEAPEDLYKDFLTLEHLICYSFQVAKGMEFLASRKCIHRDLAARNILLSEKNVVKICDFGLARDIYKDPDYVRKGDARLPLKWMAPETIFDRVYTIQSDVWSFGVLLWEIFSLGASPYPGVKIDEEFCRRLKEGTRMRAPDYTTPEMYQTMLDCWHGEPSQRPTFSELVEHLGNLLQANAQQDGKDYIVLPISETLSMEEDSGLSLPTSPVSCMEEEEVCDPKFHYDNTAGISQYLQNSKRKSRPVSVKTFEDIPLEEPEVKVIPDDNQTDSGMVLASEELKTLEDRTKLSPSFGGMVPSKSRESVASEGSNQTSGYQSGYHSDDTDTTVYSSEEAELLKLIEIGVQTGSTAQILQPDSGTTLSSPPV
T2 sequence (P35968 20-1356): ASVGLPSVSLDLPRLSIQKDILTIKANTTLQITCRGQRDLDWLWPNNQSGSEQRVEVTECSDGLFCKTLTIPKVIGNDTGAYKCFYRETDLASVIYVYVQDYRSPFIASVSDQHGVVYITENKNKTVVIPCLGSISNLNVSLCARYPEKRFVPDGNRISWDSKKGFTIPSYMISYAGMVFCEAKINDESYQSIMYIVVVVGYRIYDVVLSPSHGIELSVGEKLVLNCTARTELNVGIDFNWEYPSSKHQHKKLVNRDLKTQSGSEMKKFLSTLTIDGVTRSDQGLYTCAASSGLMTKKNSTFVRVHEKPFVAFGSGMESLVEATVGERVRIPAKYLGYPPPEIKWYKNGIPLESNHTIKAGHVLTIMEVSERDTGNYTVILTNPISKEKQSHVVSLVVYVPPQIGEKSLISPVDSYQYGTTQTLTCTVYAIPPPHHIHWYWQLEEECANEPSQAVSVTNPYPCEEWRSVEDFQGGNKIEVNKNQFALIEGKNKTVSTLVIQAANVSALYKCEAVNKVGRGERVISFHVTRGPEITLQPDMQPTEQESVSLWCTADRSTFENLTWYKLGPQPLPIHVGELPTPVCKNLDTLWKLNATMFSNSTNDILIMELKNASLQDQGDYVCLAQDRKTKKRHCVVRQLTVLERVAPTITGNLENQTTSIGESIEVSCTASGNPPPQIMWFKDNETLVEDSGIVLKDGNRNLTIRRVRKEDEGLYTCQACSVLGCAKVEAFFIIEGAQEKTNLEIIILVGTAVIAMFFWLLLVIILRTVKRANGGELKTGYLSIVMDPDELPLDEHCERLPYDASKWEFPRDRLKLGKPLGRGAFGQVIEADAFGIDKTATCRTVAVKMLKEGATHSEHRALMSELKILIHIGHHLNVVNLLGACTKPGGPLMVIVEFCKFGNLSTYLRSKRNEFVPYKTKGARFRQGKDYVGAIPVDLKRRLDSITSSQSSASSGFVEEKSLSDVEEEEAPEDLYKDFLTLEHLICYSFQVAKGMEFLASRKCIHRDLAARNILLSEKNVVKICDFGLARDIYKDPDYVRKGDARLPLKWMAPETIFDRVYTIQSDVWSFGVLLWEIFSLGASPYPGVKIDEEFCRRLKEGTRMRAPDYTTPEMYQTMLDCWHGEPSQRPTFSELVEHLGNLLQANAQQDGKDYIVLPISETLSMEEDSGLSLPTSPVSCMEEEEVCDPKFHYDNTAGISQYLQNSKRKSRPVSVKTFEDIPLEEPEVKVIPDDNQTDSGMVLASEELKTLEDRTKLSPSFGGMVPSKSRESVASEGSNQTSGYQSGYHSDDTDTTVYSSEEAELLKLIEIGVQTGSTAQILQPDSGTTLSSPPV

| IC50 (flkGST) [nM] | IC50 (human flk-1) [µM] | Structure (SMILES) |
| --- | --- | --- |
| 87 | 0.06 | O=C(O)CCc1c(/C=C2\C(=O)Nc3ccccc32)[nH]c2c1CCCC2 [Example 190, 3-[2-(2-Oxo-1,2-dihydro-indol-3-ylidenemethyl)-4,5,6,7-tetrahydro-1H-indol-3-yl]-propionic acid] |
| 380 | < 0.78 | CC(C)NS(=O)(=O)c1ccc2c(c1)C(=Cc1[nH]c3c(c1CCC(=O)O)CCCC3)C(=O)N2 [Example 208, 3-[2-(5-Isopropylaminosulfonyl-2-oxo-1,2-dihydroindol-3-ylidenemethyl)-4,5,6,7-tetrahydro-1H-indol-3-yl]-propionic acid] |
| 40 | 0.02 | O=C(O)CCc1c(/C=C2\C(=O)Nc3ccc(Cl)cc32)[nH]c2c1CCCC2 [Example 191, 3-[2-(5-Chloro-2-oxo-1,2-dihydroindol-3-ylidenemethyl)-4,5,6,7-tetrahydro-1H-indol-3-yl]-propionic acid] |
| 170 | 0.13 | NC(=O)CCc1c(/C=C2\C(=O)Nc3ccccc32)[nH]c2c1CCCC2 [Example 199, 3-[2-(2-Oxo-1,2-dihydroindol-3-ylidenemethyl)-4,5,6,7-tetrahydro-1H-indol-3-yl]-propionamide] |
| 610 | 2.1 | CN(C)C(=O)CCc1c(/C=C2\C(=O)Nc3ccccc32)[nH]c2c1CCCC2 [Example 197, N,N-Dimethyl-3-[2-(2-oxo-1,2-dihydroindol-3-ylidenemethyl)-4,5,6,7-tetrahydro-1H-indol-3-yl]-propionamide] |
| 3600 | 0.02 | Cc1cccc2c1/C(=C/c1[nH]c3c(c1CCC(=O)O)CCCC3)C(=O)N2 [Example 193, 3-[2-(4-Methyl-2-oxo-1,2-dihydroindol-3-ylidenemethyl)-4,5,6,7-tetrahydro-1H-indol-3-yl]-propionic acid] |
| 4350 | 0.03 | O=C(O)CCc1c(/C=C2\C(=O)Nc3cc(Cl)ccc32)[nH]c2c1CCCC2 [Example 195, 3-[2-(6-Chloro-2-oxo-1,2-dihydroindol-3-ylidenemethyl)-4,5,6,7-tetrahydro-1H-indol-3-yl]-propionic acid] |

Continued, compound first:

| Structure (SMILES) | IC50 (flkGST) [nM] | IC50 (human flk-1) [µM] |
| --- | --- | --- |
| CN(C)CCCc1c(/C=C2\C(=O)Nc3ccccc32)[nH]c2c1CCCC2 [Example 198, 3-[3-(3-Dimethylaminopropyl)-4,5,6,7-tetrahydro-1H-indol-2-ylmethylene]-1,3-dihydroindol-2-one] | 5840 | 7.44 |
| Cc1c[nH]c(/C=C2\C(=O)Nc3cccc(C)c32)c1CCC(=O)O [Example 218, 3-[2-(4-Methyl-2-oxo-1,2-dihydroindol-3-ylidenemethyl)-4-methyl-1H-pyrrol-3-yl]-propionic acid] | 480 | 0.2 |
| CCOc1cccc(-c2ccc3c(c2)NC(=O)/C3=C\c2[nH]cc(C)c2CCC(=O)O)c1 [Example 224, 3-{2-[6-(3-Ethoxyphenyl)-2-oxo-1,2-dihydro-indol-3-ylidenemethyl]-4-methyl-1H-pyrrol-3-yl}-propionic acid] | 670 | 1 |
| O=C1Nc2ccccc2/C1=C/c1[nH]c2c(c1CCC(=O)N1CCOCC1)CCCC2 [Example 200, 3-[3-(3-Morpholin-4-yl-3-oxopropyl)-4,5,6,7-tetrahydro-1H-indol-2-ylmethylene]-1,3-dihydroindol-2-one] | 1290 | 0.97 |
| COc1cccc(-c2ccc3c(c2)NC(=O)/C3=C\c2[nH]c3c(c2CCC(=O)O)CCCC3)c1 [Example 204, 3-{2-[6-(3-Methoxyphenyl)-2-oxo-1,2-dihydro-indol-3-ylidenemethyl]-4,5,6,7-tetrahydro-1H-indol-3-yl}-propionic acid] | 70 | 0.36 |
| COc1ccc(-c2ccc3c(c2)NC(=O)/C3=C\c2[nH]c3c(c2CCC(=O)O)CCCC3)cc1 [Example 205, 3-{2-[6-(4-Methoxyphenyl)-2-oxo-1,2-dihydro-indol-3-ylidenemethyl]-4,5,6,7-tetrahydro-1H-indol-3-yl}-propionic acid] | 440 | 0.52 |
| Cc1c[nH]c(/C=C2\C(=O)Nc3ccc(Br)cc32)c1CCC(=O)O [Example 220, 3-[2-(5-Bromo-2-oxo-1,2-dihydroindol-3-ylidenemethyl)-4-methyl-1H-pyrrol-3-yl]-propionic acid] | 110 | 0.35 |
| O=C(CCc1c(/C=C2\C(=O)Nc3ccccc32)[nH]c2c1CCCC2)NCCN1CCOCC1 [Example 202, N-(2-Morpholin-4-ylethyl)-3-[2-(2-oxo-1,2-dihydroindol-3-ylidenemethyl)-4,5,6,7-tetrahydro-1H-indol-3-yl]-propionamide] | 2540 | 0.63 |
